The values that follow come from ChEMBL document CHEMBL4371028, “Designing de Novo Small Molecules That Control Heat Shock Protein 70 (Hsp70) and Heat Shock Organizing Protein (HOP) within the Chaperone Protein-Folding Machinery” (J Med Chem, 2019).

Experiment [1] concerns the target Stress-induced-phosphoprotein 1 (Homo sapiens) (UniProt P31948). The experiment is described as follows: Inhibition of (2S,8S,11S,14S)-2-(4-aminobutyl)-14-(3-guanidinopropyl)-8-(4-hydroxybenzyl)-11-(hydroxymethyl)-4,7,10,13,16,32-hexaoxo-36-((3aS,4S,6aR)-2-oxohexahydro-1H-thieno[3,4-d]imidazol-4-yl)-19,22,25,28-tetraoxa-3,6,9,12,15,31-hexaazahexatriacontan-1-oic acid binding to His-tagged human HOP expressed in Escherichia coli up to 200 uM by Western blot analysis.

Experiment [2] is filed under the species Homo sapiens. The experiment is described as follows: Binding affinity to human recombinant Hsp70 expressed in Escherichia coli at 10 to 200 uM in presence of 1% Triton-X-100 after 1 hr by Western blot analysis based pull down assay.
For experiment [3], the target named is Heat shock protein HSP90 (Homo sapiens) (UniProt P07900+P08238). Put plainly: Binding affinity to Hsp90 (unknown origin) at 10 to 200 uM after 1 hr by Western blot analysis based pull down assay. It counts as protein assay.
The species entered for experiment [4] is Homo sapiens. The experiment is described as follows: Binding affinity to human recombinant Hsp70 expressed in Escherichia coli in presence of 1% Triton-X-100 after 1 hr by Western blot analysis based pull down assay.

The source made the active and inactive calls. The calls are words filed in the database; no cut-off is given here. Peptide text beside a SMILES is read from it. * marks the point of attachment. Biotin = O=C1N[C@H]2[C@H](CS[C@H]2CCCCC(=O)*)N1; PEG4 = NCCOCCOCCOCCOCCC(=O)O

Stress-induced-phosphoprotein 1 (Homo sapiens), sequence (P31948 whole entry, looked up): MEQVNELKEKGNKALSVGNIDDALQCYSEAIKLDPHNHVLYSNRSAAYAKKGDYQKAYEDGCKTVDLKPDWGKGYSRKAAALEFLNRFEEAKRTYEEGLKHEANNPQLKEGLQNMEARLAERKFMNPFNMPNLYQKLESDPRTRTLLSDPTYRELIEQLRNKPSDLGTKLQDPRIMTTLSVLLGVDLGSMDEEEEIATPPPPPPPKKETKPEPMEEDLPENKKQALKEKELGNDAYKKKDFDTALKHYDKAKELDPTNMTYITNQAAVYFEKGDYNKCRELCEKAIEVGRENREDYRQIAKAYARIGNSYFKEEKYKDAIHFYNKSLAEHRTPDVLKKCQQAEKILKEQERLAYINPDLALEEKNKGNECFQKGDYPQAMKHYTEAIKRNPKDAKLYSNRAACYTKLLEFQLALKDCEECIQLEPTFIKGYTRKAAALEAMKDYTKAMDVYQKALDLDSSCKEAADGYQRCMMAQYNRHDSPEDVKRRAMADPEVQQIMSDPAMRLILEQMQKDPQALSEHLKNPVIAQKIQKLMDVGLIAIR

With `N=C(N)NCCC[C@H](NC(=O)[C@H](CO)NC(=O)[C@H](Cc1ccc(O)cc1)NC(=O)CNC(=O)[C@@H](N)CCCCN)C(=O)O` (H-KGYSR-OH), in experiment [1], the inhibition result is “Active”. With `CC(C)C[C@H](NC(=O)[C@H](C)NC(=O)[C@H](C)NC(=O)CCOCCOCCOCCOCCNC(=O)CCCC[C@@H]1SC[C@@H]2NC(=O)N[C@@H]21)C(=O)N[C@@H](CCC(=O)O)C(=O)N[C@@H](Cc1ccccc1)C(=O)O` ({Biotin-PEG4}-AALEF-OH), the result in experiment [2] and in experiment [3] was inactive. Regarding `N=C(N)NCCC[C@H](NC(=O)[C@H](CO)NC(=O)[C@H](Cc1ccc(O)cc1)NC(=O)CNC(=O)[C@H](CCCCN)NC(=O)CCOCCOCCOCCOCCNC(=O)CCCC[C@@H]1SC[C@@H]2NC(=O)N[C@@H]21)C(=O)O` ({Biotin-PEG4}-KGYSR-OH), the Activity result in experiment [4] was “Dose-dependent effect”. Further, in experiment [3], the result was inactive.
